These are literature values, as cited in US4833125A, “Method of increasing bone mass” (The General Hospital Corporation, priority 1987, dated 1989).

This data set deals with osteoporosis in humans. As to conditions: hPTH (1-34) alone, Reeve et al. 1980.

Regarding “hPTH (1-34): fragment of human parathyroid hormone, first thirty-four amino acid residues, given alone in cited trial (SVSEIQLMHNLGKHLNSMERVEWLRKKLQDVHNF; Parathyroid hormone; UniProt P01270 32-65, looked up, fragment)”, the axial trabecular bone result was “considerable increase”; the “calcium retention, and hence total bone mass” value is recorded as “improved in only about half of these patients”.
